Assays:
Test in all cases: Test E greenhouse herbicide test, pre- and postemergence
Assay type in all cases: in vivo
[1] = test system: arrowleaf sida (Sida rhombifolia)
Outline: (§1)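 Seedlings reaching 2–18 cm (1- to 4-leaf stage) received foliar treatment, while seeds in silt loam received a soil surface spray; the vehicle in each case was a non-phytotoxic solvent mixture including surfactant. Visual scoring versus controls followed 14–21 d later on a 0–100 scale.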

corn (Zea mays) = test system: corn (Zea mays)
Outline: as §1

[2] = test system: field bindweed (Convolvulus arvensis)
Outline: as §1

[3] = test system: foxtail, giant (giant foxtail, Setaria faberii); conditions: Preemergence
Outline: as §1

[4] = test system: foxtail, green (green foxtail, Setaria viridis); conditions: Preemergence
Outline: as §1

[5] = test system: johnsongrass (Sorghum halepense); conditions: Preemergence
Outline: as §1

[6] = test system: lambsquarters (Chenopodium album); conditions: Preemergence
Outline: as §1

[7] = test system: momingglory (Ipomoea coccinea); conditions: Preemergence
Outline: as §1

[8] = test system: nightshade (eastern black nightshade, Solanum ptycanthum); conditions: Preemergence
Outline: as §1

[9] = test system: nutsedge, yellow (yellow nutsedge, Cyperus esculentus); conditions: Preemergence
Outline: as §1

[10] = test system: panicum, fall (fall panicum, Panicum dichotomiflorum)
Outline: as §1

[11] = test system: surinam grass (Brachiaria decumbens); conditions: Preemergence
Outline: as §1

[12] = test system: velvetleaf (Abutilon theophrasti); conditions: Preemergence
Outline: as §1

[13] = test system: waterhemp (common waterhemp, Amaranthus rudis)
Outline: as §1

[14] = 62 g ai/ha, Preemergence, scale 0 to 100 (0 no effect, 100 complete control)
[15] = Preemergence, 31 g ai/ha, scale 0 to 100, 0 no effect, 100 complete control
[16] = Preemergence, 125 g ai/ha, visual, scale 0 no effect to 100 complete control
[17] = Preemergence, 250 g ai/ha, visual, scale 0 no effect to 100 complete control
[18] = 62 g ai/ha, scale 0 to 100 (0 no effect, 100 complete control)
[19] = 31 g ai/ha, scale 0 to 100, 0 no effect, 100 complete control
[20] = 125 g ai/ha, visual, scale 0 no effect to 100 complete control
[21] = 250 g ai/ha, visual, scale 0 no effect to 100 complete control
[22] = 125 g ai/ha, scale 0 to 100 (0 no effect, 100 complete control)
[23] = 125 g ai/ha, Preemergence, scale 0 to 100 (0 no effect, 100 complete control)
[24] = 62 g ai/ha, Postemergence, scale 0 to 100 (0 no effect, 100 complete control)
[25] = 125 g ai/ha, Postemergence, scale 0 to 100 (0 no effect, 100 complete control)
[26] = 250 g ai/ha, Postemergence, scale 0 to 100 (0 no effect, 100 complete control)
[27] = Postemergence, 31 g ai/ha, visual, scale 0 no effect to 100 complete control

For Cc1ccc2ccccc2c1-c1c(O)c(I)nn(C)c1=O [Compound 29], the “Plant response rating, Arrowleaf Sida” value [1, 14] was 90, the “Plant response rating, Arrowleaf Sida” value [1, 15] was 70 and the “Plant response rating, Arrowleaf Sida” value [1, 16] was 98. The “Plant response rating, Arrowleaf Sida” value [1, 17] was 98, the “Plant response rating, Corn” value (corn (Zea mays); [14]) was 0 and the “Plant response rating, Corn” value (corn (Zea mays); [15]) was 0. For the same compound, the “Plant response rating, Corn” value (corn (Zea mays); [16]) was 0, the “Plant response rating, Corn” value (corn (Zea mays); [17]) was 0 and the “Plant response rating, Field Bindweed” value [2, 14] was 90. For the same compound, the “Plant response rating, Field Bindweed” value [2, 15] was 80, the “Plant response rating, Field Bindweed” value [2, 16] was 95 and the “Plant response rating, Field Bindweed” value [2, 17] was 98. For the same compound, the “Plant response rating, Foxtail, Giant” value [3, 18] was 80, the “Plant response rating, Foxtail, Giant” value [3, 19] was 70 and the “Plant response rating, Foxtail, Giant” value [3, 20] was 95. For the same compound, the “Plant response rating, Foxtail, Giant” value [3, 21] was 98, the “Plant response rating, Foxtail, Green” value [4, 18] was 75 and the “Plant response rating, Foxtail, Green” value [4, 19] was 65. For the same compound, the “Plant response rating, Foxtail, Green” value [4, 20] was 90, the “Plant response rating, Foxtail, Green” value [4, 21] was 100 and the “Plant response rating, Johnsongrass” value [5, 18] was 70. For the same compound, the “Plant response rating, Johnsongrass” value [5, 19] was 70, the “Plant response rating, Johnsongrass” value [5, 20] was 65 and the “Plant response rating, Johnsongrass” value [5, 21] was 100. The “Plant response rating, Lambsquarters” value [6, 18] was 100, the “Plant response rating, Lambsquarters” value [6, 19] was 100 and the “Plant response rating, Lambsquarters” value [6, 20] was 100. For the same compound, the “Plant response rating, Lambsquarters” value [6, 21] was 98, the “Plant response rating, Morningglory” value [7, 18] was 65 and the “Plant response rating, Morningglory” value [7, 22] was 80. For the same compound, the “Plant response rating, Morningglory” value [7, 19] was 35, the “Plant response rating, Morningglory” value [7, 21] was 95 and the “Plant response rating, Nightshade” value [8, 18] was 70. The “Plant response rating, Nightshade” value [8, 22] was 85, the “Plant response rating, Nightshade” value [8, 19] was 5 and the “Plant response rating, Nightshade” value [8, 21] was 90. For the same compound, the “Plant response rating, Nutsedge, Yellow” value [9, 18] was 0, the “Plant response rating, Nutsedge, Yellow” value [9, 22] was 30 and the “Plant response rating, Nutsedge, Yellow” value [9, 19] was 0. The “Plant response rating, Nutsedge, Yellow” value [9, 21] was 70, the “Plant response rating, Panicum, Fall” value [10, 14] was 95 and the “Plant response rating, Panicum, Fall” value [10, 23] was 98. For the same compound, the “Plant response rating, Panicum, Fall” value [10, 15] was 85, the “Plant response rating, Panicum, Fall” value [10, 17] was 98 and the “Plant response rating, Surinam Grass” value [11, 18] was 95. The “Plant response rating, Surinam Grass” value [11, 22] was 95, the “Plant response rating, Surinam Grass” value [11, 19] was 75 and the “Plant response rating, Surinam Grass” value [11, 21] was 100. For the same compound, the “Plant response rating, Velvetleaf” value [12, 18] was 95, the “Plant response rating, Velvetleaf” value [12, 22] was 100 and the “Plant response rating, Velvetleaf” value [12, 19] was 70. For the same compound, the “Plant response rating, Velvetleaf” value [12, 21] was 100, the “Plant response rating, Waterhemp” value [13, 14] was 90 and the “Plant response rating, Waterhemp” value [13, 23] was 98. For the same compound, the “Plant response rating, Waterhemp” value [13, 15] was 80 and the “Plant response rating, Waterhemp” value [13, 17] was 100.

With Cc1cc2ccccc2c(-c2c(O)c(C)nn(C)c2=O)c1C [Compound 34] the “Plant response rating, Arrowleaf Sida” value [1, 24] was 60, the “Plant response rating, Arrowleaf Sida” value [1, 14] was 20 and the “Plant response rating, Arrowleaf Sida” value [1, 25] was 70. The “Plant response rating, Arrowleaf Sida” value [1, 26] was 75, the “Plant response rating, Arrowleaf Sida” value [1, 27] was 65 and the “Plant response rating, Arrowleaf Sida” value [1, 15] was 0. The “Plant response rating, Arrowleaf Sida” value [1, 16] was 65, the “Plant response rating, Arrowleaf Sida” value [1, 17] was 80 and the “Plant response rating, Corn” value (corn (Zea mays); [24]) was 0. The “Plant response rating, Corn” value (corn (Zea mays); [14]) was 0, the “Plant response rating, Corn” value (corn (Zea mays); [25]) was 0 and the “Plant response rating, Corn” value (corn (Zea mays); [26]) was 5. The “Plant response rating, Corn” value (corn (Zea mays); [27]) was 0, the “Plant response rating, Corn” value (corn (Zea mays); [15]) was 0 and the “Plant response rating, Corn” value (corn (Zea mays); [16]) was 0. For the same compound, the “Plant response rating, Corn” value (corn (Zea mays); [17]) was 0, the “Plant response rating, Field Bindweed” value [2, 24] was 80 and the “Plant response rating, Field Bindweed” value [2, 14] was 50. For the same compound, the “Plant response rating, Field Bindweed” value [2, 25] was 80, the “Plant response rating, Field Bindweed” value [2, 26] was 95 and the “Plant response rating, Field Bindweed” value [2, 27] was 70. For the same compound, the “Plant response rating, Field Bindweed” value [2, 15] was 5, the “Plant response rating, Field Bindweed” value [2, 16] was 40 and the “Plant response rating, Field Bindweed” value [2, 17] was 60. The “Plant response rating, Foxtail, Giant” value [3, 18] was 40, the “Plant response rating, Foxtail, Giant” value [3, 19] was 5 and the “Plant response rating, Foxtail, Giant” value [3, 20] was 40. The “Plant response rating, Foxtail, Giant” value [3, 21] was 65, the “Plant response rating, Foxtail, Green” value [4, 18] was 0 and the “Plant response rating, Foxtail, Green” value [4, 19] was 0. For the same compound, the “Plant response rating, Foxtail, Green” value [4, 20] was 25, the “Plant response rating, Foxtail, Green” value [4, 21] was 65 and the “Plant response rating, Johnsongrass” value [5, 18] was 0. For the same compound, the “Plant response rating, Johnsongrass” value [5, 19] was 0, the “Plant response rating, Johnsongrass” value [5, 20] was 0 and the “Plant response rating, Johnsongrass” value [5, 21] was 0. The “Plant response rating, Lambsquarters” value [6, 18] was 100, the “Plant response rating, Lambsquarters” value [6, 19] was 10 and the “Plant response rating, Lambsquarters” value [6, 20] was 100. The “Plant response rating, Lambsquarters” value [6, 21] was 98, the “Plant response rating, Morningglory” value [7, 18] was 25 and the “Plant response rating, Morningglory” value [7, 22] was 35. The “Plant response rating, Morningglory” value [7, 19] was 0, the “Plant response rating, Morningglory” value [7, 21] was 90 and the “Plant response rating, Nightshade” value [8, 18] was 25. For the same compound, the “Plant response rating, Nightshade” value [8, 22] was 98, the “Plant response rating, Nightshade” value [8, 19] was 0 and the “Plant response rating, Nightshade” value [8, 21] was 95. For the same compound, the “Plant response rating, Nutsedge, Yellow” value [9, 18] was 80, the “Plant response rating, Nutsedge, Yellow” value [9, 22] was 40 and the “Plant response rating, Nutsedge, Yellow” value [9, 19] was 0. The “Plant response rating, Nutsedge, Yellow” value [9, 21] was 80, the “Plant response rating, Panicum, Fall” value [10, 24] was 65 and the “Plant response rating, Panicum, Fall” value [10, 14] was 80. For the same compound, the “Plant response rating, Panicum, Fall” value [10, 25] was 70, the “Plant response rating, Panicum, Fall” value [10, 23] was 90 and the “Plant response rating, Panicum, Fall” value [10, 26] was 60. The “Plant response rating, Panicum, Fall” value [10, 27] was 50, the “Plant response rating, Panicum, Fall” value [10, 15] was 70 and the “Plant response rating, Panicum, Fall” value [10, 17] was 95. For the same compound, the “Plant response rating, Surinam Grass” value [11, 18] was 75, the “Plant response rating, Surinam Grass” value [11, 22] was 95 and the “Plant response rating, Surinam Grass” value [11, 19] was 5. The “Plant response rating, Surinam Grass” value [11, 21] was 80, the “Plant response rating, Velvetleaf” value [12, 18] was 90 and the “Plant response rating, Velvetleaf” value [12, 22] was 100. For the same compound, the “Plant response rating, Velvetleaf” value [12, 19] was 20, the “Plant response rating, Velvetleaf” value [12, 21] was 100 and the “Plant response rating, Waterhemp” value [13, 24] was 85. The “Plant response rating, Waterhemp” value [13, 14] was 100, the “Plant response rating, Waterhemp” value [13, 25] was 85 and the “Plant response rating, Waterhemp” value [13, 23] was 100. For the same compound, the “Plant response rating, Waterhemp” value [13, 26] was 90, the “Plant response rating, Waterhemp” value [13, 27] was 70 and the “Plant response rating, Waterhemp” value [13, 15] was 100. The “Plant response rating, Waterhemp” value [13, 17] was 100.

— US10597388B2, “Pyridazinone herbicides” (FMC CORPORATION, priority 2014, dated 2020)
